Consider two molecules from patent publication US11054425B2, “System and method for identification and characterization of transglutaminase species” (Roche Sequencing Solutions, Inc., priority 2014, dated 2021).

One assay has as its system S. mobaraensis MTG. Kind of assay: GLDH-coupled assay in solution (NADH oxidation). In kind it is biochemical, Streptomyces mobaraensis. The conditions noted are these: enzyme MTG; glutamine-donor 0 to 1 mM, cadaverine 1 mM, 37° C. The method, then: (§1) For the GLDH coupled assay, to determine whether the KalbTG peptides selected in the array assay were also preferred substrates in a solution reaction and to quantify cross-reactivity of KalbTG and S. mobaraensis MTG with various substrates, a continuous glutamate dehydrogenase (GLDH)-coupled assay for S. mobaraensis MTG activity (see Oteng-Pabi, et al., 2013. Analytical biochemistry 441(2): 169-173) was applied.
(§2) For glutamine substrate evaluation, the assay was performed in a transparent 96-well microtiter plate in the presence of 500 μM α-ketoglutarate, 500 μM or 1 mM cadaverine as Amine donor substituting for a lysine-containing peptide, 2 U ml^−1 of glutamate dehydrogenase (GLDH), 500 μM NADH and glutamine-containing substrate peptide (Z-[[…] (SEQ ID NO:77)], Z-[[…] (SEQ ID NO:78)], Z-[[…] (SEQ ID NO:75)], Z-[[…] (SEQ ID NO:79)], Z-[[…] (SEQ ID NO:80)], Z-[[…] (SEQ ID NO:81)], Z-[[…] (SEQ ID NO:82)], Z-[[…] (SEQ ID NO:83)], Z-[[…] (SEQ ID NO:84)], Z-[[…] (SEQ ID NO:85)], Z-[[…] (SEQ ID NO:86)], Z-[[…] (SEQ ID NO:76)] or Z-[[…] (SEQ ID NO:87)]) concentrations ranging between 0 and 1 mM in 200 mM MOPS, 1 mM EDTA pH 7.2 (total volume per well 200 μl).
Reactions were started by the addition of 5 μg ml^−1 of S. mobaraensis MTG or KalbTG and the oxidation of NADH was continuously recorded at 340 nm for 60 minutes using a Biotek Synergy H4 microplate reader, temperature controlled at 37° C., with short shaking intervals before each measurement. After a short lag phase where the GLDH was saturated by transglutaminase-mediated release of ammonia, linear rates of absorbance versus time corresponding to transglutaminase turnover were observed and subjected to Michaelis-Menten kinetic analysis. Rates of absorbance in millioptical density units per minute (mOD min^−1) were converted into molar rates of NADH turnover (pmol s^−1) using the formula of Equation 1 (previously determined by an NADH standard curve): Turnover rate=|Absorbance rate|*1.111 (Eq. 1)

Assay [1] concerns KalbTG. Kind of assay: GLDH-coupled assay in solution (NADH oxidation). In kind it is biochemical, Kutzneria albida. On the procedure: KalbTG activity was obtained by measuring incorporation of a biotinylated amine-donor on the peptide array and rates of NADH oxidation at 340 nm and 37° C. in the presence of amine-donor substrate (500 μM) in the GLDH-coupled assay using 100 μM each of nine of the best-performing array-selected glutamine-containing substrates and of two S. mobaraensis MTG glutamine-containing substrates. […] Testing of the top sequences in Table 1 confirmed YRYRQ (SEQ ID NO: 1) and RYRQR (SEQ ID NO 14) as the top performing 5-mer substrates, with turnover rates of 3.52±0.08 pmol NADH s^−1 and 3.60±0.12 pmol NADH s^−1, respectively.
With reference to Table 2, KalbTG activity was obtained by measuring incorporation of a biotinylated glutamine-donor and rates of NADH oxidation at 340 nm and 37° C. in the presence of glutamine-donor substrate (200 μM) in the GLDH-coupled assay using 100 μM each of i) six of the top-performing array-selected lysine substrates, ii) cadaverine, and iii) preferred MTG lysine substrate ARSKL (SEQ ID NO:30). […] This is a small but significant increase over cadaverine (3.51±0.12 pmol s^−1) or ARSKL (SEQ ID NO:30) (3.87±0.31 pmol s^−1), a peptide previously established as a preferred MTG lysine donor motif on the peptide array. Additional details on the S. mobaraensis MTG substrate peptide ARSKL (SEQ ID NO:30) can be found in U.S. Provisional Patent Application Ser. No. 62/094,495 to Albert et al. filed on Dec. 19, 2014.
as §1, §2
For amine substrate evaluation, assay conditions were the same as for glutamine substrate evaluation with the exception that 100 μM each of amine substrate (Z-[[…] (SEQ ID NO:88)], Z-[[…] (SEQ ID NO:89)], Z-[[…] (SEQ ID NO:90)], Z-[[…] (SEQ ID NO:91)], Z-[[…] (SEQ ID NO:92)], Z-[[…] (SEQ ID NO:93)], Z-[[…] (SEQ ID NO:94)], Z-[[…] (SEQ ID NO:95)] or cadaverine) and 200 μM glutamine donor (Z-[[…] (SEQ ID NO:75)] or Z-[[…] (SEQ ID NO:76)]) were used.
Reactions were started by the addition of 5 μg ml^−1 of S. mobaraensis MTG or KalbTG and the oxidation of NADH was continuously recorded at 340 nm for 60 minutes using a Biotek Synergy H4 microplate reader, temperature controlled at 37° C., with short shaking intervals before each measurement. After a short lag phase where the GLDH was saturated by transglutaminase-mediated release of ammonia, linear rates of absorbance versus time corresponding to transglutaminase turnover were observed and subjected to Michaelis-Menten kinetic analysis. […]

Assay [2] has as its system KalbTG. Kind of assay: 5-mer peptide array, glutamine-substrate screening with biotinylated amine donor. Conditions: incorporation of biotinylated amine-donor on 5-mer peptide array. In kind it is biochemical, Kutzneria albida. The method, then:
To identify potential acyl-donor and amine-donor substrates of the K. albida transglutaminase, high-throughput screening on 5-mer peptide arrays was performed (FIGS. 4A and 4B). An activity of at least 1.65 U/mg for both the SlyD-fused and the mature KalbTG enzymes was confirmed by commercial assay (Zedira MTG-ANiTA-KIT; compared to 4.3 U mg^−1 by the MTG supplied with the kit and a 0.07 U/mg blank value with BSA). The assay used β-casein as a cross-linking substrate and detected deamidation by a glutamate dehydrogenase dependent oxidation of NADPH. Specific recognition motifs were identified by assaying KalbTG with peptide arrays prepared by maskless array synthesis (U.S. Pat. Pub. No 2015/0185216 to Albert et al. filed on 19 Dec. 2014). The efficiency of the transamidation reaction between 1.4 million unique 5-mer peptides and a biotinylated amine donor was quantified on two arrays in parallel and the sequences of the peptides with the highest turnovers were determined (FIG. 4A). The nine best peptides were resynthesized and tested for KalbTG activity in a standalone GLDH-coupled assay. Note that the array signal for the sequence MLAQG (SEQ ID NO:13) is marked not applicable (n. a.) as this sequence was not included on the array. Similarly, measurement of a background signal was only applicable to experiments performed on the array.
For construction of the peptide array, a library of 1,360,732 unique 5-mer peptides was designed by using all combinations of 18 natural amino acids excluding cysteine and methionine, as well as any dimer or a longer repeat of the same amino acid, and any peptide containing a dipeptide selected from HR, RH, HK, KH, RK, KR, HP, and PQ sequences. The library was synthesized in duplicate on the same array by using maskless light-directed peptide array synthesis. Each 5-mer peptide was flanked on both the N-terminus and C-terminus by 3 amino acid-long linkers synthesized by using mixture of glycine and serine having a 3:1 ratio.
To test KalbTG specificity for glutamine-containing substrate, N-(biotinyl)cadaverine was used as a substitute for a lysine substrate to biotinylate glutamine-peptides on a peptide array. KalbTG labeling reaction was performed in 1200 μL 100 mM Tris-HCl pH 8, 1 mM DTT, 50 μM N-(biotinyl)cadaverine, 0.2 ng μl^−1 KalbTG in SecureSeal™ chamber (Grace Bio-Labs) at 37° C. for 45 minutes. After incubation the chamber was removed and the array was washed in 20 mM Tris-HCl, pH7.8, 0.2 M NaCl, 1% SDS for 1 minute followed by a 1 minute wash in 20 mM Tris-HCl. Biotin linked to the array was stained with 0.3 μg ml^−1 Cy5-streptavidin in 10 mM Tris-HCl, pH7.4, 1% alkali-soluble casein, 0.05% TWEEN-20 non-ionic detergent at room temperature for 1 hour. Cy5 fluorescence intensity was measured with a fluorescence scanner at a resolution of 2 μm and a wavelength of 635 nm.

Assay [3] has as its system KalbTG. Kind of assay: Cy3 labeling of Q-tagged SlyD/FKBP scaffold, SDS-PAGE. In kind it is biochemical, Kutzneria albida. The conditions noted are these: ten-fold excess KalbTG K-tag-Cy3, substrate to enzyme ratio 72:1, after 15 minutes. An excerpt: Next, the array and in-solution data were applied to perform site-specific labeling on protein substrates. The molecular chaperone SlyD is a useful scaffold for labeling approaches as epitope-containing loops can be grafted onto the FKBP domain for presentation to binders or enzymes (PCT App. Pub. No. WO 2012/150321 A1 to Andres et al.). A chimeric protein consisting of the Thermus thermophilus FKBP domain and the KalbTG recognition sequence RYRQR (SEQ ID NO:14) was produced. Labeling with a ten-fold excess of KalbTG K-tag-Cy3 and a substrate to enzyme ratio of 72:1 afforded approximately 70% yield of a labeled protein species after 15 minutes (FIG. 6A). This yield remained constant over a time-course of 60 minutes. […] The molecular weight shift from 13 kDa to 19 kDa was observed on the SDS-PAGE gel, corresponding exactly to the incorporation of a single 6 kDa label molecule. […]
If not noted otherwise, labeling reactions were performed for 15 minutes at 37° C. in the presence of 72 μM substrate protein, 720 μM label peptide and 1 μM transglutaminase in 200 mM MOPS pH 7.2 and 1 mM EDTA. […] Samples were taken between incubation steps and analyzed by SDS-PAGE, in-gel fluorescence (BioRad ChemiDoc gel documentation system, Cy3 and Cy5 LED and filter sets). […] The mixture was filtered (0.2 μm spin filter) and analyzed by LC-MS with UV detection at 214 nm and 305 nm.

[4] abbreviates: enzyme KalbTG, glutamine-donor 0 to 1 mM, cadaverine 1 mM, 37° C.

No end group written: not given here. *: point of attachment. Cbz = O=C(OCc1ccccc1)*

KalbTG, sequence (as listed by the source): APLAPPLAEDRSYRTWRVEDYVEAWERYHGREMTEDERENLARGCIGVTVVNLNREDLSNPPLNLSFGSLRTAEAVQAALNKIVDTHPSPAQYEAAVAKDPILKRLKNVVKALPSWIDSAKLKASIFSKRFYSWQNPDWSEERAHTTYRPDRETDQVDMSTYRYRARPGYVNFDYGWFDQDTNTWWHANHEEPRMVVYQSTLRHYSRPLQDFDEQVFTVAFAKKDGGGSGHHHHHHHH

With “YRYRQ (Cbz-YRYRQ) [KalbTG glutamine-donor (Q-tag) 5-mer]”, the Km in the assay on S. mobaraensis MTG came to 644 ± 58.4 µM; in the assay with KalbTG [1] (enzyme KalbTG) it was 2000 µM; with KalbTG [1] (setting [4]), 2150 ± 291 µM. Also, the maximum rate (Vmax) in the assay on S. mobaraensis MTG stood at 21.50 ± 1.00 pmol/s; in the assay on KalbTG [1] (setting [4]), 73.18 ± 7.27 pmol/s. Besides, the values for the kcat in the assay on S. mobaraensis MTG and in the assay with KalbTG [1] (setting [4]) were 0.93 S^−1 and 1.92 S^−1, respectively. Moreover, the “Reaction rate in solution” value with KalbTG [1] (100 μM glutamine-containing substrate, 500 μM amine-donor substrate, NADH oxidation at 340 nm, 37° C.) amounted to 3.52 ± 0.08 pmol/s. In addition, in the assay with KalbTG [2], the “Array signal (log2)” value amounted to 8.99 log2.

B1: FKBP domain RYRQR: chimeric protein of Thermus thermophilus FKBP domain and KalbTG recognition sequence RYRQR (protein)
chain: MKVGQDKVVTIRYTLQVEGEVLDQGELSYLHGHRNLIPGLEEALEGREEGEAFQAHVPAEKAYGAGSGGGGRYRQRGGGGGSSGKDLDFQVEVVKVREATPEELLHGHAHHHHHHHH
modifications: synthetic peptide sequence - KalbTG acyl-donor sequence grafted onto the FKBP domain of SlyD; FKBP_domain; acyl-donor_tag; 8xHis_tag
With B1, the “yield of labeled protein species / incorporation of label” value in the assay with KalbTG [3] was “approximately 70%”.
